Literature values as cited in US20080057123A1, “Controlled Release Formulations” (Jagotec AG, priority 2006, published 2008).

solubility in ethanol (ethanol): soluble
solubility in water (water): practically insoluble
SMILES: COC(=O)C1=C(C)NC(C)=C(C(=O)OCC(C)C)C1c1ccccc1[N+](=O)[O-] (centres unmarked) [Nisoldipine]
